Literature values in patent US20250350689A1, “INTRAVENOUS DOFETILIDE AND USES THEREOF” (Hyloris Developments SA, priority 2023, published 2025).
Several values for one entry are separate records, joined by “and”; a condition that tells them apart may be missing. Equal values may be shown once. Read-outs that look alike come from different tables or passages of the source.

Key:
[1] = not given; remark: listed apart in the source
[2] = clinical studies, life threatening arrhythmias
QTc interval = conditions: slope of QTc versus dofetilide plasma concentration, Sedgwick et al

plasma concentration Cmax (500 μg oral dose, single dose): 1.9 ng/mL
time to reach a steady state concentration (oral dofetilide): at least 3 days
plasma concentration ([1]; infusion of 3.0 μg/mL): 5.35 ng/mL
IV dofetilide kinetics ([1]; relationship between IV dose and serum concentration): linear
peak plasma concentration ([1]; single dose, 10 min. IV infusion of 1.5 μg/kg): 1.74 ng/mL and 1.7 ng/mL
SMILES: CN(CCOc1ccc(NS(C)(=O)=O)cc1)CCc1ccc(NS(C)(=O)=O)cc1 [dofetilide]
safety in patients with poor heart function / heart failure [2]: not to increase life threatening arrhythmias
safety in patients with poor heart function / heart failure ([2]; listed as Dofetilide): safe
QTc change per plasma concentration (QTc interval): 15 to 25 ms/ng/mL
